Patent publication EP4737453A1, “NOVEL SELENOPHENE DERIVATIVES” (Aigen Sciences Inc., priority 2023, dated 2025)
Like-named read-outs stand apart in the source and are kept apart here.

Legend:
[1] = target: T1, SOS1 and KRAS G12C interaction (Homo sapiens, UniProt Q07889); assay: Biochemical analysis of the inhibitory activity of SOS1 and KRAS G12C interaction (time-resolved fluorescence, 665/615 nm)
T1 sequence (Q07889 564-1049 limits assumed): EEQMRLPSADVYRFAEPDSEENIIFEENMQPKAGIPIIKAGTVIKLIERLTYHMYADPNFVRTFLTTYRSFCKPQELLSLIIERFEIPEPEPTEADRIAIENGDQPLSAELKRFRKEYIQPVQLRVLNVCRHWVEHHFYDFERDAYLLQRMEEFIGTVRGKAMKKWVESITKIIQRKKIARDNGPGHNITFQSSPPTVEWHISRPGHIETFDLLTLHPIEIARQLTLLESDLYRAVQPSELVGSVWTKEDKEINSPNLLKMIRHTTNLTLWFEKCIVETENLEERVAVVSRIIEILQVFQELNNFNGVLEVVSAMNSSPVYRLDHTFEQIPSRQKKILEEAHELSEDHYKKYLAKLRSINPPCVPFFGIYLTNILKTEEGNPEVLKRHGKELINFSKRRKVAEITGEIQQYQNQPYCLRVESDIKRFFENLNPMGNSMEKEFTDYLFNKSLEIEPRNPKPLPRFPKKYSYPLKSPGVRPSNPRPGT
Description: Biochemical analysis of the inhibitory activity of SOS1 and KRAS G12C interaction
In this experimental example, the efficacy of the compound according to the present invention in inhibiting the binding of KRAS and SOS1 was biochemically measured. A KRAS G12C working solution was prepared by adding biotin-linked KRAS G12C protein and europium-linked streptavidin to assay buffer solution (20 mM HEPES, 50 mM NaCl, 200 µg/mL […] (BSA), 0.01% Pluronic F127). Then, SOS1, in which a tag consisting of six histidine residues is covalently linked, and anti-histidine tag antibody D2 were added to the assay buffer to prepare an SOS1 working solution. After these two working solutions were added to the wells of a well plate, solutions diluted according to the experimental concentration of the test compound from the 10 mM dimethyl sulfoxide (DMSO) stock solution of the Example compound or positive control compound were added to the wells in 100 nL aliquots using an Echo automatic dispenser (Beckman Coulter, USA), or a DMSO blank was added to the wells.

[2] = tested on: NCI-H358; assay: Cell Growth Inhibition Assay (3D CellTiter-Glo); assay type: cell-based; conditions: Homo sapiens, read-out: Cell growth IC50
Description: Cell Growth Inhibition Assay
In this experimental example, the cell growth inhibitory effect of compounds according to the present invention and positive control compounds in tumor cell lines was examined.
The cell culture medium containing the compound was replaced by 100 µL every 3 days. Luminescence analysis was performed using the 3D CellTiter-Glo Luminescent Cell Viability Assay Kit (Promega, USA) (Promega catalog number G9681). […] The percent cell growth inhibition rate was calculated from the measured relative luminescence unit (RLU) as follows. Inhibition rate = 1−((RLU compound−RLU blank)/(RLU control−RLU blank)) X 100 [formula]

[3] = target: T2, SOS2 and KRAS G12C interaction (Homo sapiens, UniProt Q07890); assay type: biochemical; conditions: SOS2, KRAS G12Cs; read-out: Enzyme activity IC50
T2 sequence (Q07890 1-1332): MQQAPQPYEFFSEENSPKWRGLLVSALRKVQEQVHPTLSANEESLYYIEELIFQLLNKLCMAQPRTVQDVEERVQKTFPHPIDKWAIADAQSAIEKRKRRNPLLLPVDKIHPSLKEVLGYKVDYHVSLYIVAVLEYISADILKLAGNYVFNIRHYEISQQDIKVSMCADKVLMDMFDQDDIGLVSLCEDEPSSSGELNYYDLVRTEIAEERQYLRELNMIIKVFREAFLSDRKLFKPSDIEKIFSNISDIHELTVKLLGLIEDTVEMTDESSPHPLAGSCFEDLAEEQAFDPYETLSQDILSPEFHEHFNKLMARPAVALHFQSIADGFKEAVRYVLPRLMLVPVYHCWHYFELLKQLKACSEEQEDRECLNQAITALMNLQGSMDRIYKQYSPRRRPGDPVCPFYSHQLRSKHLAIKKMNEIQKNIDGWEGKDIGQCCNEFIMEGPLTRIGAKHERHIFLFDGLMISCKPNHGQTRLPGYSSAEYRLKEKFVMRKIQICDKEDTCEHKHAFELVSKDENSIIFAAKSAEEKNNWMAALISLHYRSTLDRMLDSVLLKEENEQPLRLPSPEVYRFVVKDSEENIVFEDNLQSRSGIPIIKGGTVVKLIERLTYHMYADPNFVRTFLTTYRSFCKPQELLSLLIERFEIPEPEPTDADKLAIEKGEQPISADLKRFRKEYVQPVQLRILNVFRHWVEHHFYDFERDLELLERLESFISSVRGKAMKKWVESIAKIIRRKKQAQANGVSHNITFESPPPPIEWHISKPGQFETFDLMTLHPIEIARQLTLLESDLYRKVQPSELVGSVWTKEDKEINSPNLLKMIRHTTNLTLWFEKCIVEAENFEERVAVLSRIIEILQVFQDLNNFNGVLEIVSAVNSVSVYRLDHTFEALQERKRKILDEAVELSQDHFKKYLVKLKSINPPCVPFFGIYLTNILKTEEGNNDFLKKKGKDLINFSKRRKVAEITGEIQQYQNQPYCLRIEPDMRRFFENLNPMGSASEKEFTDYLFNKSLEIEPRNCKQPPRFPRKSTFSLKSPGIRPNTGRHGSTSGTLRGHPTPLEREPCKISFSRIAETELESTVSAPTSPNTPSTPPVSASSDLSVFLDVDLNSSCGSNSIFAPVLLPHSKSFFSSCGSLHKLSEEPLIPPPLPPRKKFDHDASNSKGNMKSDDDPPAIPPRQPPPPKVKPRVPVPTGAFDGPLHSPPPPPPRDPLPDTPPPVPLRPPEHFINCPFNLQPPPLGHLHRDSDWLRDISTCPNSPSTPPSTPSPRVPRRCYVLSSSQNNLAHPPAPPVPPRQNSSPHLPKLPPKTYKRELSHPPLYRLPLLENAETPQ

[4] = tested on: MIA-PaCa-2; assay: Reactive oxygen species (ROS) production assay; assay type: cell-based; conditions: MIA-PaCa-2 cells, 10 µM, 24 hours; Figure 3
Description: Reactive oxygen species (ROS) production assay
In this experimental example, it was examined that the compound according to the present invention has the effect of increasing reactive oxygen in tumor cells.
MIA-PaCa-2 (Korea Cell Line Bank KCLB No. 21420), a cancer cell line harboring KRAS G12C mutation, was cultured in a cell culture medium containing RPMI1640 (Gibco, USA, catalog no. 11875-119), 10% fetal bovine serum (HyClone, USA, catalog no. SH30919.03), and 1 × diluted HyClone Antibiotic Antimycotic solution (HyClone, USA, catalog no. SV30079.01). 3 × 10^5 cells were seeded per well in a 6-well plate and cultured for 1 day at 37°C under 5% CO2 conditions. […] The cells were then collected in a microtube and analyzed for fluorescence using a BD LSRFortessa™ X-20 Cell Analyzer (BD Biosciences, USA) (excitation wavelength: 488 nm, emission wavelength: 535 nm). The fluorescence intensity due to the increase in reactive oxygen species was measured for 10,000 cells. Among the cells treated with 500 µM hydrogen peroxide, which was the positive control, the section in which the fluorescence intensity increased compared to the cells treated with the blank sample was found, and the average fluorescence intensity of the cells within this section was calculated. […]

[5] = SOS1, KRAS G12C, 60 minutes at room temperature, read-out: Enzyme activity IC50

Row | Compound | IC50 [1] | IC50 ([2]; NCI-H358, 288 h) | further results
1 | [2H]C([2H])([2H])NCc1ccccc1-c1c[se]c([C@@H](C)Nc2nc(C)nc3cc(OC)c(OC)cc23)c1 [Example 7, (R)-6,7-dimethoxyl-2-methyl-N-(1-(4-(2-(((methyl-d3)amino)methyl)phenyl)selenophen-2-yl)ethyl)quinazolin-4-amine] | 19.3 nM | 25.6 nM | –
2 | CNCc1ccccc1-c1csc([C@H](C)Nc2nc(C)nc3cc(OC)c(OC)cc23)c1 [BAY-293, (S)-6,7-dimethoxy-2-methyl-N-[1-[4-[2-[(methylamino)methyl]phenyl]thiophene-2-yl]ethyl]quinazolin-4-amine, reference compound] | – | – | IC50 ([2]; 288 h, NCI-H358 (KRAS G12C), 96-well 3D assay plate, 12 days): 136 nM
3 | COc1cc2nc(C)nc(N[C@H](C)c3cc(-c4ccccc4CN(C)C)c[se]3)c2cc1OC [Example 5, (R)-N-(1-(4-(2-((dimethylamino)methyl)phenyl)selenophen-2-yl)ethyl)-6,7-dimethoxyl-2-methylquinazolin-4-amine] | 27.7 nM | 50 nM | –
4 | CNCc1ccccc1-c1c[se]c([C@@H](C)Nc2nnc(C)c3cnc(N4CCOCC4)cc23)c1 [Example 4, (R)-4-methyl-N-(1-(4-(2-((methylamino)methyl)phenyl)selenophen-2-yl)ethyl)-7-morpholinopyrido[3,4-d]pyridazine-1-amine] | 13.4 nM | 51.7 nM | –
5 | CNCc1ccccc1-c1c[se]c([C@@H](C)Nc2nc(Cl)nc3c2CN(C(=O)C2(OC)CCOCC2)C3)c1 [Example 3, (R)-(2-chloro-4-((1-(4-(2-((methylamino)methyl)phenyl)selenophen-2-yl)ethyl)amino)-5,7-dihydro-6H-pyrolo[3,4-d]pyrimidine-6-yl)(4-methoxytetrahydro-2H-pyran-4-yl)methanone] | 34.7 nM | 124 nM | –
6 | COc1cc2nc(C)nc(N[C@H](C)c3cc(-c4ccccc4CN(C)C)c[se]3)c2cc1O[C@H]1CCOC1 [Example 8, N-((R)-1-(4-(2-((dimethylamino)methyl)phenyl)selenophen-2-yl)ethyl)-7-methoxy-2-methyl-6-(((S)-tetrahydrofuran-3-yl)oxy)quinazolin-4-amine] | – | – | IC50 [1, 5]: 16.2 nM
7 | COc1cc2nc(C)nc(N[C@H](C)c3cc(-c4ccccc4CN4CCCC4)c[se]3)c2cc1OC [Example 6, (R)-6,7-dimethoxyl-2-methyl-N-(1-(4-(2-(pyrrolidine-1-ylmethyl)phenyl)selenophen-2-yl)ethyl)quinazolin-4-amine] | 76 nM | 87.5 nM | –
8 | COc1cc2nc(C)nc(N[C@H](C)c3cc(-c4ccccc4CN4CCCC4)c[se]3)c2cc1O[C@H]1CCOC1 [Example 9, 7-methoxy-2-methyl-N-((R)-1-(4-(2-(pyrrolidine-1-ylmethyl)phenyl)selenophen-2-yl)ethyl)-6-(((S)-tetrahydrofuran-3-yl)oxy)quinazolin-4-amine] | – | – | IC50 [1, 5]: 22.5 nM
9 | Cc1c(C#N)cccc1[C@@H](C)Nc1nnc(C)c2cnc(N3CCOCC3)cc12 [MRTX0902, (R)-2-methyl-3-(1-((4-methyl-7-morpholinopyrido[3,4-d]pyridazine-1-yl)amino)ethyl)benzonitrile, reference compound] | – | 108 nM | IC50 [3]: 1640 nM; ROS production compared to the blank sample [4]: did not increase ROS production
10 | CNCc1ccccc1-c1c[se]c([C@@H](C)Nc2nc(C)nc3cc(OC)c(O[C@H]4CCOC4)cc23)c1 [Example 2, 7-methoxy-2-methyl-N-((R)-1-(4-(2-((methylamino)methyl)phenyl)selenophen-2-yl)ethyl)-6-(((S)-tetrahydrofuran-3-yl)oxy)quinazolin-4-amine] | 16.6 nM | 58.7 nM | –
